According to publication PMC6691788, “Design and synthesis of phthalazine-based compounds as potent anticancer agents with potential antiangiogenic activity via VEGFR-2 inhibition” (Journal of Enzyme Inhibition and Medicinal Chemistry, 2019):

Legend:
Experiment in all cases: NCI 60 cell panel SRB screen
NCI-H226 = assay type: cell-based; details: Homo sapiens; NCI-H226, single dose 10 μM; read-out: percent cell growth promotion
SK-MEL-28 = assay type: cell-based; details: Homo sapiens, SK-MEL-28, read-out: percent cell growth promotion
KM12 = assay type: cell-based; details: Homo sapiens; KM12, single dose 10 μM; read-out: percent cell growth promotion
ACHN = assay type: cell-based; details: Homo sapiens, single dose 10 μM, read-out: percent cell growth promotion
SNB-75 = assay type: cell-based; details: Homo sapiens; SNB-75, single dose 10 μM; read-out: percent cell growth promotion
A549/ATCC = assay type: cell-based; details: Homo sapiens, single dose 10 μM, read-out: percent cell growth promotion
SK-MEL-5 = assay type: cell-based; details: Homo sapiens, SK-MEL-5, read-out: percent cell growth promotion
RPMI-8226 = assay type: cell-based; details: Homo sapiens; RPMI-8226, single dose 10 μM; read-out: percent cell growth promotion
NCI/ADR-RES = assay type: cell-based; details: Homo sapiens, single dose 10 μM, read-out: percent cell growth promotion
SK-OV-3 = assay type: cell-based; details: Homo sapiens; SK-OV-3, single dose 10 μM; read-out: percent cell growth promotion
SNB-19 = assay type: cell-based; details: Homo sapiens; SNB-19, single dose 10 μM; read-out: percent cell growth promotion
RXF 393 = assay type: cell-based; details: Homo sapiens; RXF 393, single dose 10 μM; read-out: percent cell growth promotion
NCI-H460 = assay type: cell-based; details: Homo sapiens; NCI-H460, single dose 10 μM; read-out: percent cell growth promotion
MALME-3M = assay type: cell-based; details: Homo sapiens, Malme-3M, read-out: percent cell growth promotion
U251 = assay type: cell-based; details: Homo sapiens, U-251; U251, single dose 10 μM; read-out: percent cell growth promotion
NCI-H23 = assay type: cell-based; details: Homo sapiens; NCI-H23, single dose 10 μM; read-out: percent cell growth promotion
M14 = assay type: cell-based; details: Homo sapiens, M14, read-out: percent cell growth promotion
HCT-116 = assay type: cell-based; details: Homo sapiens; HCT-116, single dose 10 μM; read-out: percent cell growth promotion
SN12C = assay type: cell-based; details: Homo sapiens, single dose 10 μM, read-out: percent cell growth promotion
HCC-2998 = assay type: cell-based; details: Homo sapiens; HCC-2998, single dose 10 μM; read-out: percent cell growth promotion
SW-620 = assay type: cell-based; details: Homo sapiens; SW-620, single dose 10 μM; read-out: percent cell growth promotion
SR = assay type: cell-based; details: Homo sapiens, single dose 10 μM, read-out: percent cell growth promotion
TK-10 = assay type: cell-based, human; details: Homo sapiens; TK-10, single dose 10 μM; read-out: percent cell growth promotion
OVCAR-8 = assay type: cell-based; details: Homo sapiens; OVCAR-8, single dose 10 μM; read-out: percent cell growth promotion
CCRF-CEM = assay type: cell-based, human; details: Homo sapiens, single dose 10 μM, read-out: percent cell growth promotion
HOP-92 = assay type: cell-based; details: Homo sapiens; HOP-92, single dose 10 μM; read-out: percent cell growth promotion
OVCAR-5 = assay type: cell-based; details: Homo sapiens; OVCAR-5, single dose 10 μM; read-out: percent cell growth promotion

SMILES | activity at 10 µM (NCI-H226) | activity at 10 µM (SK-MEL-28) | activity at 10 µM (KM12) | activity at 10 µM (ACHN) | activity at 10 µM (SNB-75) | activity at 10 µM (A549/ATCC) | activity at 10 µM (SK-MEL-5) | activity at 10 µM (RPMI-8226) | activity at 10 µM (NCI/ADR-RES) | activity at 10 µM (SK-OV-3) | activity at 10 µM (SNB-19) | activity at 10 µM (RXF 393) | activity at 10 µM (NCI-H460) | activity at 10 µM (MALME-3M) | activity at 10 µM (U251) | activity at 10 µM (NCI-H23) | activity at 10 µM (M14) | activity at 10 µM (HCT-116) | activity at 10 µM (SN12C) | activity at 10 µM (HCC-2998) | further results
CCOC(=O)N1CCN(c2nnc(C)c3ccccc23)CC1 [Compound 8f, Ethyl 4–(4-methylphthalazin-1-yl)piperazine-1-carboxylate] | 103% | 113% | 107% | 107% | 101% | 94.1% | 97.5% | 96.9% | 109% | 101% | 107% | 108% | 104% | 102% | 96% | 104% | 104% | 103% | 101% | 99.8% | activity at 10 µM (SW-620): 104%; activity at 10 µM (SR): 101%; activity at 10 µM (TK-10): 90.6%; activity at 10 µM (OVCAR-8): 102%; activity at 10 µM (CCRF-CEM): 103%; activity at 10 µM (HOP-92): 112%; activity at 10 µM (OVCAR-5): 95%
O=C(Nc1ccc(Cl)cc1)Nc1ccc(Oc2nnc(Cl)c3ccccc23)cc1 [Compound 13b, 1–(4-Chlorophenyl)-3–(4-(4-chlorophthalazin-1-yloxy)phenyl)urea] | 81.4% | 106% | 84.5% | 80.7% | 74% | 78.2% | 95.5% | 87.7% | 83.6% | 88.6% | 103% | 99.7% | 98.1% | 92.3% | 86.7% | 89% | 103% | 97.8% | 91.4% | 115% | activity at 10 µM (SW-620): 106%; activity at 10 µM (SR): 82.8%; activity at 10 µM (TK-10): 109%; activity at 10 µM (OVCAR-8): 86%; activity at 10 µM (CCRF-CEM): 66%; activity at 10 µM (HOP-92): 104%; activity at 10 µM (OVCAR-5): 113%
